Source: US20260308157A1, “Pyrrolopyrazine Compounds, Preparation Thereof and Therapeutic Uses Thereof” (Sanofi, priority 2023, published 2026)

What was measured:
[1] = biological target: T1, activated catalytic domain of protein ERK5 (Homo sapiens, UniProt Q13164); test: Cell-Free Assay of ERK5 Inhibition (Time-Resolved Forster Resonance Energy Transfer); assay type: biochemical; details: ERK5 4 nM, 1 mM ATP, 1 μM biotinylated 4EBP1 peptide, 30 min at 37° C.; TR-FRET; mean where repeated
T1 construct: purchased CarnaBiosciences #04-146
Method: (§1) Two assays were performed to assess the ERK5 inhibitory activity of compounds of the Examples, a cell-based assay and a cell-free biochemical assay. Where repeat measurements were taken, the value reported is a mean average.
Cell-Free Assay of ERK5 Inhibition
An assay was performed to measure the capacity of each compound to inhibit ERK5 enzymatic activity. Compound potency was evaluated by Time-Resolved Forster Resonance Energy Transfer (FRET system). The activated catalytic domain of protein ERK5 (CarnaBiosciences #04-146) was mixed at 4 nM with varying concentrations of compound and incubated for 30 minutes at room temperature. A mixture of 1 mM ATP and 1 μM biotinylated synthetic peptide was added (Biosyntan GmbH). This synthetic peptide represents amino acids 30-52 of Eukaryotic translation initiation factor 4E-binding protein 1 (see, e.g., the sequence under accession No. NP_004086.1) biotinylated at the N-terminus. After 30 minutes at 37° C., the peptide phosphorylation by ERK5 was measured by addition of FRET reagents consisting of 12.5 µg/ml Streptavidin-XL665, 1 nM Anti-P-4EBP1 antibody and 300 ng/ml Anti-rabbit-K antibody. Following 90 minutes at room temperature fluorescent signals were read on the Pherastar FSX multimod detector from BMG Labtech (Exc° 340 nm, Em1 620 nm, Em2 665 nm). The IC50 values represent the concentration of compound which inhibits the measurable fluorescence signal by […] as compared to the DMSO only control.

[2] = biological target: T2, Cellular ERK5 Activity (Homo sapiens, UniProt Q13164); test: Inhibition of Cellular ERK5 Activity (cell-based assay, MEF2 luciferase reporter in SN12C cells); details: renal cancer cell line SN12C, doxycycline-induced MEK5DD, 0.3-10000 nM, mean where repeated
T2 construct: MEF2-response-element luciferase reporter (pGreenFire1)
Method: as §1
Inhibition of Cellular ERK5 Activity
The renal cancer cell line SN12C was transduced by a lentivirus pGreenFire1 MEF2 EF1 Neo (ref TR030VA-N) from SBI using standard infection protocol. pGreenFire1 MEF2 EF1 Neo allows the expression of luciferase gene under the control of minimal promoter with MEF2 transcriptional response elements. Cells harboring the reporter construct were selected by geneticin treatment. The selected cells were then transposed by a piggyback based plasmid pCM4007 allowing the expression of constitutively activated MEK5DD under control of TREG3 promoter, a doxycycline regulated promoter. Transposed cells were selected by puromycin treatment. Upon doxycycline treatment (1 μg/ml) MEK5DD was expressed. MEK5DD activates ERK5 that phosphorylates MEF2C protein. Activated MEF2C protein can bind to its transcriptional response elements. Then the luciferase is expressed. In a 96-well plate (96F nuncleon ref137101 thermofisher), 50,000 cells were inoculated in 142.5 μl of RPMI medium containing 10% fetal calf serum, 1% glutamine, and 1 μg/ml doxycycline. After 24 hours, compounds were added in 7.5 μl culture medium (with 2% DMSO to give a final concentration of 0.1%) in order to obtain the desired concentration (0.3-10000 nM). The luciferase activity was measured using the Kit Bright Glo Luminescent Cell Assay Cat E2610 (Promega) according to the manufacturer's protocol. Luminescence was determined using 0.2 second reading/well using a Tecan SPARK. IC50 values were calculated using XLFIT5 for Microsoft Excel using method 205. The IC50 values represent the concentration of compound which inhibits the measurable luminescence signal by 50% as compared to DMSO-treated control cells.

T2 sequence (Q13164 whole entry): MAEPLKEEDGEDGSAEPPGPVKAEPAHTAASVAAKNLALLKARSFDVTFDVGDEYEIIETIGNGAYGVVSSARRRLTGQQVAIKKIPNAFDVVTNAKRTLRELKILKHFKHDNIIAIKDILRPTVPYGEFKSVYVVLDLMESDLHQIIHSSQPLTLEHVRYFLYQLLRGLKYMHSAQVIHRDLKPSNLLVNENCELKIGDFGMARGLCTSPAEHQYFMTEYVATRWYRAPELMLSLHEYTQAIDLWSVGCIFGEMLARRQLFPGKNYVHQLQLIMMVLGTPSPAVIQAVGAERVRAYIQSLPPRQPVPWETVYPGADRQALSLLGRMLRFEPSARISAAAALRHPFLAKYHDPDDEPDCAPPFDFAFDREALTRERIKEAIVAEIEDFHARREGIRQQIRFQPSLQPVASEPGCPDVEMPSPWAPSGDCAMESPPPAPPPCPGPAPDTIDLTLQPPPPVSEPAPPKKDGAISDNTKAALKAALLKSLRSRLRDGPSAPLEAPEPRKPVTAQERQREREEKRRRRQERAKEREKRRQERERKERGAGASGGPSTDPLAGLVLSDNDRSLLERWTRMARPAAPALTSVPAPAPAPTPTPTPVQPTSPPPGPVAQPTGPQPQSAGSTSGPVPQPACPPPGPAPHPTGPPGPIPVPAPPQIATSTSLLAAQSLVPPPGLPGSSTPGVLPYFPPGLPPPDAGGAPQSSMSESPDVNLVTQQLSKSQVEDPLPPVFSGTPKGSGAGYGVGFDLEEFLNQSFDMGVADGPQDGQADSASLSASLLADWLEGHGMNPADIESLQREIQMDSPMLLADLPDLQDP
T1 sequence (Q13164 55-347 limits assumed): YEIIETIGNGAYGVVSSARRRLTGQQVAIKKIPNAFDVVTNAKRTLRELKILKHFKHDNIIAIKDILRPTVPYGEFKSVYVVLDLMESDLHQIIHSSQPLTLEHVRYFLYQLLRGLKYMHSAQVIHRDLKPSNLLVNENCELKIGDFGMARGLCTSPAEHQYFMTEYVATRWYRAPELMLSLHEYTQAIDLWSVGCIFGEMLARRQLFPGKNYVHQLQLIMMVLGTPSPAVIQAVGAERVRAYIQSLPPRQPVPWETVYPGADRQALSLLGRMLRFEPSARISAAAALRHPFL

Nc1cc(OC(F)(F)F)ccc1C(=O)N1CCC(c2c[nH]c3ncc(C4CCN(C5CC5)CC4)nc23)CC1 [Example 10, [2-Amino-4-(trifluoromethoxy)phenyl]-[4-[2-(1-cyclopropyl-4-piperidyl)-5H-pyrrolo[2,3-b]pyrazin-7-yl]-1-piperidyl]methanone]
IC50 [1]: 23 nM
IC50 [2]: 28 nM

O=C(c1ccc(OC(F)(F)F)cc1)N1CCC(c2c[nH]c3ncc(C4CCN(C5CC5)CC4)nc23)CC1 [Example 11, [4-[2-(1-Cyclopropyl-4-piperidyl)-5H-pyrrolo[2,3-b]pyrazin-7-yl]-1-piperidyl]-[4-(trifluoromethoxy)phenyl]methanone]
IC50 [1]: 76 nM
IC50 [2]: 112 nM

CN1CCC(c2cnc3[nH]cc(C4CCN(C(=O)c5ccc(S(F)(F)(F)(F)F)cc5)CC4)c3n2)CC1 [Example 15, [4-[2-(1-Methyl-4-piperidyl)-5H-pyrrolo[2,3-b]pyrazin-7-yl]-1-piperidyl]-[4-(pentafluoro-λ^6-sulfanyl)phenyl]methanone]
IC50 [1]: 98 nM
IC50 [2]: 96 nM

CN1CCC(c2cnc3[nH]cc(C4CCN(C(=O)c5ccc(S(F)(F)(F)(F)F)cc5N)CC4)c3n2)CC1 [Example 16, [2-Amino-4-(pentafluoro-λ^6-sulfanyl)phenyl]-[4-[2-(1-methyl-4-piperidyl)-5H-pyrrolo[2,3-b]pyrazin-7-yl]-1-piperidyl]methanone]
IC50 [1]: 38 nM
IC50 [2]: 25 nM

O=C(c1ccc(S(F)(F)(F)(F)F)cc1)N1CCC(c2c[nH]c3ncc(C4CCOCC4)nc23)CC1 [Example 17, [4-(pentafluoro-λ^6-sulfanyl)phenyl]-[4-(2-tetrahydropyran-4-yl-5H-pyrrolo[2,3-b]pyrazin-7-yl)-1-piperidyl]methanone]
IC50 [1]: 578 nM
IC50 [2]: 140 nM

Nc1cc(S(F)(F)(F)(F)F)ccc1C(=O)N1CCC(c2c[nH]c3ncc(C4CCOCC4)nc23)CC1 [Example 18, [2-Amino-4-(pentafluoro-λ^6-sulfanyl)phenyl]-[4-(2-tetrahydropyran-4-yl-5H-pyrrolo[2,3-b]pyrazin-7-yl)-1-piperidyl]methanone]
IC50 [1]: 330 nM
IC50 [2]: 34 nM

Nc1cc(S(F)(F)(F)(F)F)ccc1C(=O)N1CCC(c2c[nH]c3ncc(C4CCN(C5CC5)CC4)nc23)CC1 [Example 19, [2-Amino-4-(pentafluoro-λ^6-sulfanyl)phenyl]-[4-[2-(1-cyclopropyl-4-piperidyl)-5H-pyrrolo[2,3-b]pyrazin-7-yl]-1-piperidyl]methanone]
IC50 [1]: 176 nM
IC50 [2]: 94 nM

O=C(c1ccc(S(F)(F)(F)(F)F)cc1)N1CCC(c2c[nH]c3ncc(C4CCN(C5CC5)CC4)nc23)CC1 [Example 20, [4-[2-(1-Cyclopropyl-4-piperidyl)-5H-pyrrolo[2,3-b]pyrazin-7-yl]-1-piperidyl]-[4-(pentafluoro-λ^6-sulfanyl)phenyl]methanone]
IC50 [1]: 282 nM
IC50 [2]: 201 nM

O=C(c1ccc(OC2CC2)cc1)N1CCC(c2c[nH]c3ncc(C4CCOCC4)nc23)CC1 [Example 21, [4-(Cyclopropoxy)phenyl]-[4-(2-tetrahydropyran-4-yl-5H-pyrrolo[2,3-b]pyrazin-7-yl)-1-piperidyl]methanone]
IC50 [1]: 359 nM
IC50 [2]: 352 nM

O=C(c1ccc(C(F)(F)C(F)(F)F)cc1)N1CCC(c2c[nH]c3ncc(C4CCOCC4)nc23)CC1 [Example 22, [4-(1,1,2,2,2-Pentafluoroethyl)phenyl]-[4-(2-tetrahydropyran-4-yl-5H-pyrrolo[2,3-b]pyrazin-7-yl)-1-piperidyl]methanone]
IC50 [1]: 1140 nM
IC50 [2]: 279 nM

O=C(C1CCCCC1)N1CCC(c2c[nH]c3ncc(C4CCOCC4)nc23)CC1 [Example 23, Cyclohexyl-[4-(2-tetrahydropyran-4-yl-5H-pyrrolo[2,3-b]pyrazin-7-yl)-1-piperidyl]methanone]
IC50 [1]: 13300 nM
IC50 [2]: 4800 nM

O=C(c1ccc(S(F)(F)(F)(F)F)cc1F)N1CCC(c2c[nH]c3ncc(C4CCOCC4)nc23)CC1 [Example 26, [2-Fluoro-4-(pentafluoro-λ^6-sulfanyl)phenyl]-[4-(2-tetrahydropyran-4-yl-5H-pyrrolo[2,3-b]pyrazin-7-yl)-1-piperidyl]methanone]
IC50 [1]: 624 nM
IC50 [2]: 149 nM

Nc1cc(OC(F)(F)F)ccc1C(=O)N1CCC(c2c[nH]c3ncc(NC4COC4)nc23)CC1 [Example 27, [2-amino-4-(trifluoromethoxy)phenyl]-[4-[2-(oxetan-3-ylamino)-5H-pyrrolo[2,3-b]pyrazin-7-yl]-1-piperidyl]methanone]
IC50 [1]: 5560 nM
IC50 [2]: 5430 nM

Nc1cc(OC(F)(F)F)ccc1C(=O)N1CCC(c2c[nH]c3ncc(O[C@@H]4CCOC4)nc23)CC1 [Example 28, [2-amino-4-(trifluoromethoxy)phenyl]-[4-[2-[(3R)-tetrahydrofuran-3-yl]oxy-5H-pyrrolo[2,3-b]pyrazin-7-yl]-1-piperidyl]methanone]
IC50 [1]: 405 nM
IC50 [2]: 190 nM

Nc1cc(OC(F)(F)F)ccc1C(=O)N1CCC(c2c[nH]c3ncc(O[C@H]4CCOC4)nc23)CC1 [Example 29, [2-amino-4-(trifluoromethoxy)phenyl]-[4-[2-[(3S)-tetrahydrofuran-3-yl]oxy-5H-pyrrolo[2,3-b]pyrazin-7-yl]-1-piperidyl]methanone]
IC50 [1]: 399 nM
IC50 [2]: 215 nM

CN1CCN(c2cnc3[nH]cc(C4CCN(C(=O)c5ccc(OC(F)(F)F)cc5)CC4)c3n2)CC1 [Example 31, [4-[2-(4-methylpiperazin-1-yl)-5H-pyrrolo[2,3-b]pyrazin-7-yl]-1-piperidyl]-[4-(trifluoromethoxy)phenyl]methanone, formic acid]
IC50 [1]: 189 nM
IC50 [2]: 86 nM

O=C(c1ccc(OC(F)(F)F)cc1)N1CCC(c2c[nH]c3ncc(NC4CCOCC4)nc23)CC1 [Example 38, [4-[2-(tetrahydropyran-4-ylamino)-5H-pyrrolo[2,3-b]pyrazin-7-yl]-1-piperidyl]-[4-(trifluoromethoxy)phenyl]methanone]
IC50 [1]: 993 nM
IC50 [2]: 166 nM

Nc1cc(OC(F)(F)F)ccc1C(=O)N1CCC(c2c[nH]c3ncc(NC4CCOCC4)nc23)CC1 [Example 39, [2-amino-4-(trifluoromethoxy)phenyl]-[4-[2-(tetrahydropyran-4-ylamino)-5H-pyrrolo[2,3-b]pyrazin-7-yl]-1-piperidyl]methanone]
IC50 [1]: 307 nM
IC50 [2]: 37 nM

O=C(c1ccc(OC(F)(F)F)cc1)N1CCC(c2c[nH]c3ncc(N4CCOCC4)nc23)CC1 [Example 40, [4-(2-morpholino-5H-pyrrolo[2,3-b]pyrazin-7-yl)-1-piperidyl]-[4-(trifluoromethoxy)phenyl]methanone]
IC50 [1]: 1010 nM
IC50 [2]: 180 nM

O=C(c1ccc(OC(F)(F)F)cc1)N1CCC(c2c[nH]c3ncc(N4CCC(F)(F)CC4)nc23)CC1 [Example 41, [4-[2-(4,4-difluoro-1-piperidyl)-5H-pyrrolo[2,3-b]pyrazin-7-yl]-1-piperidyl]-[4-(trifluoromethoxy)phenyl]methanone]
IC50 [1]: > 30000 nM
IC50 [2]: 308 nM

O=C(c1ccc(C(O)(C(F)(F)F)C(F)(F)F)cc1)N1CCC(c2c[nH]c3ncc(C4CCOCC4)nc23)CC1 [Example 42, [4-(2-tetrahydropyran-4-yl-5H-pyrrolo[2,3-b]pyrazin-7-yl)-1-piperidyl]-[4-[2,2,2-trifluoro-1-hydroxy-1-(trifluoromethyl)ethyl]phenyl]methanone]
IC50 [1]: > 30000 nM
IC50 [2]: 480 nM

Nc1cc(OC(F)(F)F)ccc1C(=O)N1CCC(c2c[nH]c3ncc(OC4COC4)nc23)CC1 [Example 44, [2-amino-4-(trifluoromethoxy)phenyl]-[4-[2-(oxetan-3-yloxy)-5H-pyrrolo[2,3-b]pyrazin-7-yl]-1-piperidyl]methanone]
IC50 [1]: 639 nM
IC50 [2]: 272 nM
